This passage reports IC50 and Ki results from ChEMBL document CHEMBL1138026, “Ketopyrrolidines and ketoazetidines as potent dipeptidyl peptidase IV (DPP IV) inhibitors” (Bioorg Med Chem Lett, 2004).

Assay [1] in a line: Inhibitory concentration against dipeptidyl peptidase IV.
The nature of assay [2]: Inhibition constant against dipeptidyl peptidase IV.

Consider `CC[C@H](C)[C@H](N)C(=O)N1CC[C@H]1C(=O)c1nc2ccccc2s1`, for which, in assay [1], half-maximal inhibition (IC50) was put at 200 nM.

For `N[C@H](C(=O)N1CCCC1)C1CCCCC1`, in assay [1], the IC50 – broadly, the midpoint of a concentration-inhibition curve – was 125 nM.

As to `O=C(c1nc2ccccc2s1)C1CCN1C(=O)[C@@H]1C[C@@H]2CCCC[C@@H]2N1` (stereo not given in full), it took 115 nM to reach half-maximal inhibition in assay [1] (IC50). This IC50 and that of the compound before are within 1.5-fold of each other.

Regarding `N[C@@H](C(=O)N1CCCC[C@@H]1C(=O)c1nccs1)C1CCCCC1`, the concentration for half-maximal inhibition (IC50) in assay [1] was more than 100000 nM.

With `O=C(c1ccccc1)[C@@H]1CCCN1C(=O)[C@@H]1C[C@@H]2CCCC[C@@H]2N1`, the IC50 in assay [1] was more than 100000 nM.

In assay [1], `O=C(c1nc2ccccc2s1)[C@@H]1CCN1C(=O)CNC1CCCCC1` had an IC50 of 190 nM. That is a sub-micromolar value.

Turning to `N#C[C@@H]1CCCN1C(=O)[C@@H](N)C1CCCCC1`, inhibition in assay [1] was half-maximal at 8 nM (IC50).

Regarding `CC(C)(C)NCC(=O)N1CCC1C(=O)c1nc2ccccc2s1` (stereo not given), in assay [1], the midpoint of inhibition, the IC50, lay at 100 nM.

In assay [1], `O=C(c1nc2ccccc2s1)[C@@H]1CCCN1C(=O)CNC1CCCCC1` displayed an IC50 of 300 nM.

In assay [1], `N[C@@H](C(=O)N1CCC[C@@H]1C(=O)c1nccs1)C1CCCCC1` yielded an IC50 of 1000 nM.

Consider `N[C@@H](C(=O)N1CC[C@@H]1C(=O)c1nccs1)C1CCCCC1`, for which inhibition in assay [1] was half-maximal at 40 nM (IC50). This IC50 lies about 25-fold lower than the previous one.

With `N[C@H](C(=O)N1CCSC1)C1CCCCC1`, the IC50 in assay [1] amounted to 150 nM.

Turning to `CC(C)[C@H](N)C(=O)N1CCC[C@H]1B(O)O` [TALABOSTAT], the Ki (as a rule, the equilibrium dissociation constant of an inhibitor or competing ligand from its target) in assay [2] came to 2 nM. This lies in the single-digit nanomolar range.

Compound `CCC(C)C(N)C(=O)N1CCC[C@H]1C(=O)c1nc2ccccc2s1` (stereo not given in full) came in with an IC50 in assay [1] of 100 nM.

For `C[C@H](N)C(=O)N1CCCC1P(=O)(Oc1ccccc1)Oc1ccccc1` (stereo not given in full), the IC50 in assay [1] worked out at 15 nM.

Regarding `O=C(c1cccnc1)[C@@H]1CCCN1C(=O)[C@@H]1C[C@@H]2CCCC[C@@H]2N1`, the IC50 in assay [1] is more than 100000 nM.

In assay [1], `CC(=O)[C@@H]1CCCN1C(=O)[C@@H]1C[C@@H]2CCCC[C@@H]2N1` came in with an IC50 of more than 100000 nM.

`Cn1cncc1C(=O)[C@@H]1CCCN1C(=O)[C@@H]1C[C@@H]2CCCC[C@@H]2N1` came in with an IC50 in assay [1] of more than 100000 nM.

In turn, `N[C@@H](C(=O)N1CCCC[C@H]1C(=O)c1nccs1)C1CCCCC1` came in with an IC50 in assay [1] of more than 100000 nM.

The compound `O=c1c(C2CCCCC2)nc(-c2nccs2)c2n1CCC2` yielded an IC50 in assay [1] of more than 100000 nM.
